Reference: patent US20190216824A1, “Particles, Compositions and Methods for Ophthalmic and/or Other Applications” (priority 2016, published 2019)

Key:
[1] = XRPD crystal form before and after milling (Example 8); format: physicochemical; details: input vs milled with F127
Text: Particles were isolated by centrifugation, then resuspended in H2O and then recentrifuged. The wet sample was resuspended in H2O and deposited thinly and evenly onto a flat zero background sample holder (Rigaku 906165). The sample was allowed to air dry.
Milligram amounts were packed as an evenly thin layer of solid onto a zero background sample holder (Rigaku 906165).
X-ray Powder Diffraction (XRPD) patterns were obtained using a Rigaku MiniFlex 600 benchtop x-ray diffractometer equipped with a Cu X-ray tube (Cu/Kα=1.54059 Å), a six-position sample changer and a D/teX Ultra detector. […] Diffraction patterns were viewed and analyzed using PDXL analysis software provided by the instrument manufacturer. A reference standard silicon powder (NIST Standard Reference Material 640d) generated a peak at 28.43° and 28.45° two theta when samples were prepared as suspension in H2O (to simulate Procedure A) and Procedure B, respectively.
All input crystalline forms were arbitrarily designated as “A” forms. New forms that emerged after milling, if any, were sequentially designated as “B”, “C”, etc.

[2] = DLS size and PDI of cortisone and hydrocortisone milled with F127 (Example 7); format: physicochemical; details: suspension milled with 5% F127 in PBS pH 7.1, 25 hours
Experimental: A milling procedure was employed in which aqueous dispersions containing coarse compound particles were individually milled with F127 at near-neutral pH buffer using a grinding medium. Briefly, a slurry containing 5% of compound and 5% F127 in PBS (0.0067 M PO43), pH 7.1 was added to an equal bulk volume of 1-mm ceria-stabilized zirconium oxide beads in a glass vial (e.g., 2 mL of slurry per 2 mL of beads). A magnetic stir bar was used to agitate the beads, stirring at approximately 500 rpm at ambient conditions for 25 hours.
The milled suspensions were subjected to dynamic light scattering (DLS) measurements to determine particle size and polydispersity index (PDI, a measure of the width of the particle size distribution). The samples for DLS measurements were buffered with HyClone™ PBS (phosphate-buffered saline) to produce isotonic samples that have a physiologically relevant pH.

Row | SMILES | Crystal form change after milling of "A" forms? [1] | PDI [2] | Size (Z-average) [2] [nm]
1 | C[C@]12CCC(=O)C=C1CC[C@@H]1[C@@H]2C(=O)C[C@@]2(C)[C@H]1CC[C@]2(O)C(=O)CO [Compound 1, Cortisone] | No | 0.074 | 225
2 | C[C@]12CCC(=O)C=C1CC[C@@H]1[C@@H]2[C@@H](O)C[C@@]2(C)[C@H]1CC[C@]2(O)C(=O)CO [Compound 2, hydrocortisone] | No | 0.258 | 357
